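Grown in 96-well plates, cells were treated for 48 hours with each compound at five concentrations. Insufficient inhibition: endpoint recorded as highest concentration tested. Abbreviation: GI50, concentration required for 50% inhibition of growth. Definition used: TGI = concentration required for complete inhibition of growth.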

Among the test systems are OVCAR-5 ovarian; SK-OV-3 ovarian; NCI-H23 lung; NCI-H460 lung; CAKI-1 renal; M14 melanoma; UACC-257 melanoma; A549 NSCLC; CCRF-CEM leukemia; HT29 colon.
Assay in all cases: inhibition of tumour cell growth, NCI panel, 48 h

With `O=c1cc(-c2ccc(Cl)cc2)[nH]c2ncccc12`, the TGI in the assay on OVCAR-5 ovarian, with SK-OV-3 ovarian, in the assay with NCI-H23 lung, in the assay on NCI-H460 lung, in the assay on CAKI-1 renal and in the assay on M14 melanoma was above 100 µM each time. Further, the TGI in the assay on UACC-257 melanoma, in the assay on A549 NSCLC, in the assay with CCRF-CEM leukemia and in the assay with HT29 colon was above 100 µM each time. In the assay on NCI-H460 lung, the GI50 was 37.9 µM.
`O=C1OCc2c1cc(F)cc2[N+](=O)[O-]`: the GI50 in the assay with OVCAR-5 ovarian, in the assay on SK-OV-3 ovarian, with NCI-H23 lung, in the assay on NCI-H460 lung, in the assay on CAKI-1 renal and in the assay on M14 melanoma was above 100 µM each time. The GI50 in the assay with UACC-257 melanoma, in the assay on A549 NSCLC, in the assay on CCRF-CEM leukemia and with HT29 colon was above 100 µM throughout. Also, the TGI in the assay on OVCAR-5 ovarian, in the assay on SK-OV-3 ovarian, with NCI-H23 lung, in the assay on NCI-H460 lung, in the assay with CAKI-1 renal and with M14 melanoma was above 100 µM each time. Moreover, the TGI with UACC-257 melanoma, in the assay on A549 NSCLC, in the assay on CCRF-CEM leukemia and with HT29 colon was above 100 µM each time.

(Values after PubChem BioAssay (NCI).)
